Laboratory results: patent US4968698A, “Nitrogen containing heterocyclic compounds” (Burroughs Wellcome Co., priority 1984, dated 1990)
In brackets after ≈: the same amount, converted by molar mass. Like-named read-outs stand apart in the source and are kept apart here.

Legend:
Trichomonas vaginalis = experiment: In vitro activity against T. vaginalis (IC50 determination); type: cell-based; conditions: 37° C., aerobic, Modified Diamonds Medium
Procedure: The antiprotozoal e.g. antitrichomonal, activity of the compounds of the present invention may be assessed by conventional methods, for example by determining the minimum inhibition concentration (m.i.c.) or 50% inhibition level (IC50).
Modified Diamonds Medium (MDM) was prepared according to the method described in J. Kulda et al., American Journal of Obstetrics and Gynaecology 1970, 108, 908-18 and 4 cm^3 of the medium was pipetted into each of a series of tubes (usually 16 tubes). To each tube was added 0.5 cm^3 of varying concentration of a solution (usually in ethanol+MDM) or suspension of the test drug. Duplicate tubes for each drug concentration were prepared.
Finally, to each tube was added T. vaginalis (0.5 cm^3) at a concentration of 1×10^5 cm^-3,) to give a final trichomonad concentration of 1×10^4 cm^-3 in each tube. The tubes were then incubated (aerobically) at 37° C. and the resulting trichomonad numbers were counted at 24 and 48 hours using a haemacytometer.
This information was then used to determine the 50% inhibition concentration (IC50).

Candida albicans = experiment: In vitro activity against Candida albicans (minimum inhibition concentration); type: cell-based; conditions: Yeast Nitrogen Base (YNB) broth; salt form given per compound
Procedure: The antifungal activity of the compounds of the present invention may be evaluated by determining the minimum fungistatic (inhibition) concentration (m.i.c.). This test is usually performed by preparing a series of plates or tubes containing a suitable nutrient medium, each plate or tube also containing a different concentration of the test compound and then inoculating the medium with the fungal species. After an incubation period the plates are examined visually for the presence or absence of fungal growth. The m.i.c. is the minimum concentration required to prevent fungal growth.
Minimum Inhibition Concentrations (MICs) of compounds of the present invention vs. C. albicans were determined.
The solution was filter sterilised with a 0.45 μm membrane filter unit and was then further diluted with sterile distilled water (SDW)-YNB solution: SDW (1:5).

[1] = 24 hr, 1×10^4 trichomonads cm^-3, read-out: IC50 24 hr
[2] = 48 hr, 1×10^4 trichomonads cm^-3, read-out: IC50 48 hr

SMILES | IC50 (Trichomonas vaginalis; [1]) | IC50 (Trichomonas vaginalis; [2]) | MIC (Candida albicans)
CCCCOc1ccc2c(c1)CCN=C2/C=C/C1CCCCC1 [Example 1, (E)-6-Butyloxy-1-(2-cyclohexylvinyl)-3,4-dihydroisoquinoline] | 1.3 µg/mL (≈ 4.17 µM) | 1.8 µg/mL (≈ 5.78 µM) | 1.6 µg/mL
C(=CC1CCCCC1)C1=NCCc2cc(OCc3ccccc3)ccc21 [Example 2, 6-Benzyloxy-1-[2-cyclohexylvinyl]-3,4-dihydroisoquinoline] | 1 µg/mL (≈ 2.89 µM) | 1.8 µg/mL (≈ 5.21 µM) | 1.6 µg/mL
CC(C)COc1ccc2c(c1)CCN=C2/C=C/C1CCCCC1 [Example 5, (E)-1-(2-Cyclohexylvinyl)-3,4-dihydro-6-(2-methylpropyloxy)isoquinoline] | 6.1 µg/mL (≈ 19.6 µM) | 6.4 µg/mL (≈ 20.5 µM) | 6.2 µg/mL
CCCOc1ccc2c(c1)CCN=C2/C=C/C1CCCCC1 [Example 6, (E)-1-(2-Cyclohexylvinyl)-3,4-dihydro-6-propyloxyisoquinoline] | 0.4 µg/mL (≈ 1.34 µM) | 0.4 µg/mL (≈ 1.34 µM) | 25 µg/mL
CCCCOc1ccc2c(c1)CCN=C2/C=C/c1c(F)c(F)c(F)c(F)c1F [Example 23, (E)-6-Butyloxy-1-(2-pentafluorophenyl)vinyl-3,4-dihydroisoquinoline] | 1.1 µg/mL (≈ 2.78 µM) | 2.3 µg/mL (≈ 5.82 µM) | 6.2 µg/mL
CCCOc1ccc2c(c1)CCN=C2C=Cc1ccc(Cl)cc1Cl [Example 31, 1-(2,4-Dichlorostyryl)-3,4-dihydro-6-propyloxyisoquinoline] |  |  | 6.2 µg/mL
Clc1ccccc1C=CC1=NCCc2cc(OCC3CCCCC3)ccc21 [Example 39, 1-(2-Chlorostyryl)-6-cyclohexylmethoxy-3,4-dihydroisoquinoline] |  |  | 1.6 µg/mL
N#Cc1ccc(C=CC2=NCCc3cc(OCc4ccccc4)ccc32)cc1 [Example 52, 6-Benzyloxy-1-(4-cyanostyryl)-3,4-dihydroisoquinoline] | 2.9 µg/mL (≈ 7.96 µM) | 3.2 µg/mL (≈ 8.78 µM) | 6.2 µg/mL
C/C=C/C=C/C1=NCCc2cc(OCCCC)ccc21 [Example 128, (E,E)-6-Butyloxy-3,4-dihydro-1-(penta-1,3-dienyl)isoquinoline] | 1.5 µg/mL (≈ 5.57 µM) | 1.6 µg/mL (≈ 5.94 µM) | 25 µg/mL
CCCCCCOc1cc2c(cc1OCCCCCC)C(C=Cc1ccc(Cl)cc1)=NCC2 [Example 165, 1-(4-Chlorostyryl)-6,7-dihexyloxy-3,4-dihydroisoquinoline] | 9 µg/mL (≈ 19.2 µM) | 10 µg/mL (≈ 21.4 µM) | 
Clc1ccc(C=CC2=NCCc3cc(OCc4ccccc4)c(OCc4ccccc4)cc32)c(Cl)c1 [Example 170, 6,7-Bisbenzyloxy-1-(2,4-dichlorostyryl)-3,4-dihydroisoquinoline] | 1 µg/mL (≈ 1.94 µM) | 3.2 µg/mL (≈ 6.22 µM) | 
C(=Cc1ccccc1)C1=NCCc2c1ccc(OCc1ccccc1)c2OCc1ccccc1 [Example 171, 5,6-Bis(benzyloxy)-3,4-dihydro-1-styrylisoquinoline] | 0.8 µg/mL (≈ 1.8 µM) | 1.8 µg/mL (≈ 4.04 µM) | 
Clc1ccc(C=CC2=NCCc3c2ccc(OCc2ccccc2)c3OCc2ccccc2)cc1 [Example 172, 5,6-Bis(benzyloxy)-1-(4-chlorostyryl)-3,4-dihydroisoquinoline] | 0.7 µg/mL (≈ 1.46 µM) | 2 µg/mL (≈ 4.17 µM) | 
COc1ccc(OCc2ccccc2)c2c1C(C=Cc1ccccc1)=NCC2 [Example 174, 5-Benzyloxy-3,4-dihydro-8-methoxy-1-styryl-isoquinoline] | 1.4 µg/mL (≈ 3.79 µM) | 2 µg/mL (≈ 5.41 µM) | 
COc1ccc(OCc2ccccc2)c2c1C(C=Cc1ccc(C#N)cc1)=NCC2 [Example 175, 5-Benzyloxy-1-(4-cyanostyryl)-3,4-dihydro-8-methoxyisoquinoline] | 0.4 µg/mL (≈ 1.01 µM) | 1 µg/mL (≈ 2.54 µM) | 
CCCc1c2c(cc(OC)c1OCc1ccccc1)C(C=Cc1ccc(Cl)cc1)=NCC2 [Example 176, 6-Benzyloxy-1-(4-chlorostyryl)-3,4-dihydro-7-methoxy-5-propylisoquinoline] | 1.7 µg/mL (≈ 3.81 µM) | 3.1 µg/mL (≈ 6.95 µM) | 
CCCc1c(O)c(OC)cc2c1CCN=C2C=Cc1ccccc1Cl [Example 180, 1-(2-Chlorostyryl)-3,4-dihydro-6-hydroxy-7-methoxy-5-propylisoquinoline] | 1 µg/mL (≈ 2.81 µM) | 1.6 µg/mL (≈ 4.5 µM) | 

Further lines, results first:

IC50 (Trichomonas vaginalis; [1]) | IC50 (Trichomonas vaginalis; [2]) | MIC (Candida albicans) | SMILES
3.7 µg/mL (≈ 12.1 µM) | 8.8 µg/mL (≈ 28.8 µM) | 6.2 µg/mL | CCCCOc1ccc2c(c1)CCN=C2C=Cc1ccccc1 [Example 3, 6-Butyloxy-3,4-dihydro-1-styrylisoquinoline]
1.5 µg/mL (≈ 4.54 µM) | 2.5 µg/mL (≈ 7.57 µM) | 6.2 µg/mL | CCCCOc1ccc2c(c1)CCN=C2C=Cc1ccc(C#N)cc1 [Example 13, 6-Butyloxy-3,4-dihydro-1-(4-cyanostyryl)isoquinoline]
 |  | 3.1 µg/mL | CCCCOc1ccc2c(c1)CCN=C2C=Cc1ccc(Cl)cc1 [Example 22, 6-Butyloxy-1-(4-chlorostyryl)-3,4-dihydroisoquinoline]
2.2 µg/mL (≈ 6.51 µM) | 2.8 µg/mL (≈ 8.29 µM) | 6.2 µg/mL | C=CCCOc1ccc2c(c1)CCN=C2C=Cc1ccc(Cl)cc1 [Example 45, 6-(But-3-enyloxy)-1-(4-chlorostyryl)-3,4-dihydroisoquinoline]
 |  | 6.2 µg/mL | CC(C)CCOc1ccc2c(c1)CCN=C2C=Cc1ccc(Cl)cc1 [Example 50, 1-(4-Chlorostyryl)-3,4-dihydro-6-(3-methylbutyloxy)-isoquinoline]
 |  | 6.2 µg/mL | Clc1ccc(C=CC2=NCCc3cc(OCc4ccccc4)ccc32)cc1 [Example 57, 6-Benzyloxy-1-(4-chlorostyryl)-3,4-dihydroisoquinoline]
 |  | 25 µg/mL | CCCCOc1ccc2c(c1)CCN=C2/C=C/c1ccsc1 [Example 107, (E)-6-Butyloxy-3,4-dihydro-1-(3-thienyl)vinylisoquinoline]
 |  | 1.6 µg/mL | CCCCOc1ccc2c(c1)CCN=C2C=Cc1ccc(C)s1 [Example 144, 6-Butyloxy-3,4-dihydro-1-(2-(5-methyl-2-thienyl)vinyl)isoquinoline]
